From the supplement of paper PMC10307832

Tests used:
Experiment in all cases: relative viability (nuclei count vs DMSO), 5 days (fraction); higher = more cells survive
[1] = compound: CC1=CC=C(C=C1)C(=O)CN2C3=C(CCCC3)SC2=N [Pifithrin_alpha] + CS(=O)(=O)N1CCN(Cc2cc3nc(-c4cccc5[nH]ncc45)nc(N4CCOCC4)c3s2)CC1 [Pictilisib] (partner 1 µM)
How it was run: (§1)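 A single step with final 0.05% Triton X-100, 1% formaldehyde and 1 ug/ml Hoechst fixed the cells and stained nuclei 5 days after treatment. Lung cancer cell lines in 1536-well plates had been treated by pin tool the day after seeding with one drug alone or a fixed anchor-drug dose plus five library-drug doses (not always all listed) in √10 steps, and nuclei were counted on 4× images. Relative viability is the ratio of nuclei in treated wells to nuclei in vehicle wells, taken as the median of duplicate plates.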

Axitinib + Lapatinib = compound: CNC(=O)c1ccccc1Sc1ccc2c(/C=C/c3ccccn3)n[nH]c2c1 [Axitinib] + CS(=O)(=O)CCNCc1ccc(-c2ccc3ncnc(Nc4ccc(OCc5cccc(F)c5)c(Cl)c4)c3c2)o1 [Lapatinib] (partner 2 µM)
How it was run: as §1

Bemcentinib + Navitoclax = compound: Nc1nc(Nc2ccc3c(c2)CC[C@@H](N2CCCC2)CC3)nn1-c1cc2c(nn1)-c1ccccc1CCC2 [Bemcentinib] + CC1(C)CCC(c2ccc(Cl)cc2)=C(CN2CCN(c3ccc(C(=O)NS(=O)(=O)c4ccc(N[C@H](CCN5CCOCC5)CSc5ccccc5)c(S(=O)(=O)C(F)(F)F)c4)cc3)CC2)C1 [Navitoclax] (partner 0.5 µM)
How it was run: as §1

Bemcentinib + Linsitinib = compound: Nc1nc(Nc2ccc3c(c2)CC[C@@H](N2CCCC2)CC3)nn1-c1cc2c(nn1)-c1ccccc1CCC2 [Bemcentinib] + C[C@]1(O)C[C@@H](c2nc(-c3ccc4ccc(-c5ccccc5)nc4c3)c3c(N)nccn32)C1 [Linsitinib] (partner 1 µM)
How it was run: as §1

Row | Cell Line | relative viability ([1]; first compound 1 µM) | relative viability ([1]; first compound 3.162 µM) | relative viability ([1]; first compound 10 µM) | relative viability ([1]; first compound 31.62 µM) | relative viability ([1]; first compound 100 µM) | relative viability (Axitinib + Lapatinib; first compound 0.005 µM) | relative viability (Axitinib + Lapatinib; first compound 0.01581 µM) | relative viability (Axitinib + Lapatinib; first compound 0.05 µM) | relative viability (Axitinib + Lapatinib; first compound 0.1581 µM) | relative viability (Axitinib + Lapatinib; first compound 0.5 µM) | relative viability (Bemcentinib + Navitoclax; first compound 0.04 µM) | relative viability (Bemcentinib + Navitoclax; first compound 0.1265 µM) | relative viability (Bemcentinib + Navitoclax; first compound 0.4 µM) | relative viability (Bemcentinib + Navitoclax; first compound 1.265 µM) | relative viability (Bemcentinib + Navitoclax; first compound 4 µM) | relative viability (Bemcentinib + Linsitinib; first compound 0.04 µM) | relative viability (Bemcentinib + Linsitinib; first compound 0.1265 µM) | relative viability (Bemcentinib + Linsitinib; first compound 0.4 µM) | relative viability (Bemcentinib + Linsitinib; first compound 1.265 µM) | relative viability (Bemcentinib + Linsitinib; first compound 4 µM)
1 | NCI-H2009 | 0.658 | 0.78 | 0.816 | 0.365 | 0.594 | 0.92 | 1.05 | 0.9 | 1.02 | 0.9 | 1.12 | 1.16 | 1.22 | 1.14 | 1.21 | 1.21 | 1.25 | 1.14 | 1.17 | 1.21
2 | ChaGo-K-1 | 0.431 | 0.653 | 0.631 | 0.473 | 0.559 |  |  |  |  |  | 0.872 | 0.933 | 1.02 | 0.862 | 0.624 |  |  |  |  | 
3 | NCI-H460 | 0.317 | 0.353 | 0.31 |  | 0.371 | 1.15 | 0.999 | 0.809 | 0.953 | 1.35 | 0.994 | 1.47 | 1.45 | 1.23 | 1.34 | 0.907 | 1.04 | 1.08 | 0.983 | 0.86
4 | NCI-H322M | 0.54 | 0.45 | 0.503 | 0.44 | 0.428 | 0.658 | 0.603 | 0.591 | 0.566 | 0.652 | 1.11 | 1.26 | 1.23 | 1.35 | 1.37 | 0.994 | 0.978 | 0.9 | 1.01 | 1.04
5 | HCC-827 | 1.05 | 0.982 | 0.907 | 0.791 | 1.02 | 0.209 | 0.169 | 0.138 | 0.186 | 0.212 | 1.03 | 1.04 | 1.07 | 0.957 | 1.02 | 0.952 | 0.992 | 0.936 | 0.947 | 0.988
6 | HOP-62 | 0.376 | 0.822 | 0.875 | 0.342 | 0.804 | 0.891 | 0.883 | 1.01 | 0.863 | 1.06 | 1.04 | 0.97 | 1.16 | 0.995 | 1.13 | 1.12 | 0.986 |  | 1.08 | 0.99
7 | Calu-6 | 1 | 0.907 | 0.816 | 0.546 | 0.644 | 1.07 | 1.11 | 1.08 | 1.06 | 1.39 | 0.856 | 0.856 | 1.01 | 0.871 | 0.973 | 0.946 | 1.05 | 1.04 | 0.983 | 0.944
8 | NCI-H2023 | 0.171 | 0.193 | 0.151 | 0.142 | 0.168 | 0.752 | 0.924 | 1.03 | 0.775 | 0.759 | 0.963 | 1.12 | 1.11 | 1.12 | 0.996 | 0.689 | 0.721 | 0.821 | 0.877 | 0.678
9 | NCI-H441 | 0.552 | 0.582 | 0.624 | 0.436 | 0.438 |  |  |  |  |  | 0.504 | 0.752 | 0.637 | 0.59 | 0.598 | 0.525 | 0.702 | 0.76 | 0.496 | 0.581
10 | NCI-H2347 | 0.754 | 0.145 | 0.753 | 0.408 | 0.6 | 0.979 | 0.971 | 0.966 | 1.04 | 0.922 | 0.741 | 0.862 | 0.864 | 0.918 | 0.966 | 0.959 | 1.04 | 0.943 | 0.951 | 0.871
11 | NCI-H358 | 0.276 | 0.346 | 0.368 | 0.333 | 0.317 | 0.46 | 0.401 | 0.437 | 0.374 | 0.469 |  |  |  |  |  | 0.77 | 0.795 | 0.788 | 0.668 | 0.796
12 | NCI-H1944 | 0.314 | 0.341 | 0.307 |  | 0.308 | 0.86 | 0.802 | 0.907 | 0.827 | 0.68 | 0.964 | 1.02 | 1.04 | 0.977 | 1.08 | 1.25 | 1.08 | 1.28 | 1.16 | 1.1
13 | ABC-1 | 0.273 | 0.745 | 0.735 | 0.429 | 0.437 | 1.19 | 1.28 | 1.01 | 1.32 | 1.21 |  |  |  |  |  | 0.785 | 0.811 | 0.881 | 0.801 | 0.682
14 | NCI-H1650 | 0.286 | 0.44 | 0.53 | 0.353 | 0.468 | 0.928 | 0.532 | 0.884 | 0.715 | 0.818 | 1.1 | 1.29 | 0.946 | 1.33 | 1.16 |  |  |  |  | 
15 | NCI-H661 | 0.322 | 0.391 | 0.359 | 0.472 | 0.333 | 0.608 | 0.522 | 0.359 | 0.481 | 0.534 |  |  |  |  |  | 0.587 | 0.53 | 0.609 | 0.656 | 0.548
16 | NCI-H2170 | 0.271 | 0.302 | 0.274 | 0.278 | 0.33 | 0.269 | 0.257 | 0.277 | 0.256 | 0.257 | 0.701 | 0.636 | 0.627 | 0.675 | 0.638 |  |  |  |  | 
17 | NCI-H1563 | 0.53 | 0.688 | 0.61 | 0.65 | 0.705 | 0.956 | 0.85 | 0.931 | 0.863 | 0.694 |  |  |  |  |  | 1.24 | 1.15 | 1.21 | 1.15 | 1.19
18 | LCLC-103H | 0.53 | 0.531 | 0.566 | 0.551 | 0.567 |  |  |  |  |  |  |  |  |  |  | 1.17 | 1.09 | 1.11 | 1.27 | 1.22
